{"source": "patent US20060084682A1", "about": "“Thrombopoietin mimetics” (priority 2002, published 2006)", "biological_target": "T1, human Tpo-R (Homo sapiens, UniProt P40238)", "T1 construct": "expressed in transfected cells; host or cells: murine BaF3 cell line", "T1 sequence (P40238 26-635)": "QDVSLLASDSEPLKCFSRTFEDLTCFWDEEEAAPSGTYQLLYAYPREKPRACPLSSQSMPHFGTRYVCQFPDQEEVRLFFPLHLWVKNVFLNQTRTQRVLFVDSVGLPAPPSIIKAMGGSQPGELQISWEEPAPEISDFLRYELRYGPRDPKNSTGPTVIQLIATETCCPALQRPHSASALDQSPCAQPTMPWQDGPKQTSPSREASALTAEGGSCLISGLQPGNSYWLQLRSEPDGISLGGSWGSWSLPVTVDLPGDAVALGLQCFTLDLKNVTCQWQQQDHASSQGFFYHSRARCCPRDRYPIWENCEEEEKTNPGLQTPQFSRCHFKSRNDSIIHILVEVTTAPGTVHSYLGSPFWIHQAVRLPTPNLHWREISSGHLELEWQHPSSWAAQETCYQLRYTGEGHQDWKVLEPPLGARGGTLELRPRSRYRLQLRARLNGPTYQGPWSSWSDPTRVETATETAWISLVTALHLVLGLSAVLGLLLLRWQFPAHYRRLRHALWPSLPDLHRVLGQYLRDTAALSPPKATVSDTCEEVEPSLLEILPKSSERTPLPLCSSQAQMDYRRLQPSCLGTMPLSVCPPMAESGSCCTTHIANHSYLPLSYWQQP", "assay": "in vitro proliferation assay using the murine BaF3 cell line transfected with human Tpo-R", "type": "cell-based", "conditions": "at a concentration of 2 uM", "method": "Compounds of the present invention were tested for potency as mimetics of TPO in an in vitro proliferation assay using the murine BaF3 cell line transfected with human Tpo-R. Survival and growth is dependent on the presence of TPO.", "data": [{"smiles": "O=C1NC(=S)SC1=Cc1ccc2[nH]c(-c3cccc(-c4ccc(Cl)c(Cl)c4)n3)nc2c1", "note": "[Example 1, 5-{2-[6-(3,4-dichloro-phenyl)-pyridin-2-yl]-1H-benzoimidazol-5-ylmethylene}-2-thioxo-thiozolidin-4-one]", "values": [{"measurement": "activation, % of control (control is the maximal response to TPO), proliferation of BaF3 cells", "value": "about 20 % of control"}]}]}
